Entries after “also recorded” stand apart in the source; their conditions may differ.
Key:
[1] = Odor and H2S generation of 4-alkylresorcinol solutions during storage; assay type: physicochemical; conditions: as stabilizer of 4-substituted resorcinols
Experimental: (§1) Samples were prepared by dissolving 4-hexylresorcinol (HR) (200 mg) or 4-ethylresorcinol (ER) (200 mg) in DI water:butylene glycol (4:1; 20 ml) to generate a clear colorless homogeneous solution. A portion of each solution (5 ml) was added to a 20 ml scintilation vial containing either niacinamide (B3) (50 mg), NDAC (N,N′-diacetyl-L-cystine) (50 mg), NACys (N-acetyl-L-cysteine) (50 mg), B3 (50 mg)+NDAC (50 mg) or B3 (50 mg)+NACys (50 mg). A hydrogen sulfide (H2S) test strip (Sigma) was placed above the sample solution and the samples sealed. Odor and H2S generation (unchanged test strip white color=no H2S generated; changed test strip brown/black color=H2S generated) were monitored for 2 weeks at R.T. (about 20 to about 22° C.).

[2] = HPLC quantitation of 4-hexylresorcinol (HR) remaining after storage; assay type: physicochemical
Experimental: The amount of 4-hexylresorcinol (HR) or 4-ethylresorcinol (ER) present in each of the samples used for the color measurements was quantitated after 2 weeks @ R.T. (˜20-22° C.) by high performance liquid chromatography (HPLC). A sample aliquot (100 uL) from each of the color measurement solutions was diluted with DI water:acetonitrile (1:1, 900 uL) to generate test samples (1 ml). An aliquot (10 uL) from each test sample was injected into a Waters 2695 Separations Module, chromatographed and separated on a Restek Pinnacle DB C18 (5 μm, 4.6×150 mm) column operated at 30° C. and the 4-alkylresorcinols monitored using a Waters 2996 Photodiode Array Detector set @ 281 nm. […] Standard control samples of HR at 1×, 5×higher and 5×lower concentrations were prepared fresh and immediately analysed; standard curves were generated within the test sample range and linearity was confirmed.
All samples were analyzed in duplicate and the mean value reported. The amount of 4-alkylresorcinol present for each test sample after 2 weeks was determined by measuring the chromatographic peak area under the curve @ 281 nm for HR and expressed as the percent ratio over the corresponding chromatographic peak area under the curve @ 281 nm for the freshly prepared control sample.

[3] = Color of 4-alkylresorcinol solutions after storage (visual appearance and L*a*b*, Labscan XE); assay type: physicochemical
Experimental: as §1
After 2 weeks of storage at R.T. (about 20 to about 22° C.), the color of each solution was assessed visually. Additionally, L*a*b* measurements determined experimentally using a Labscan XE instrument (Hunter Associates Labs Inc., Reston, Va.) and processed with Universal Software (version 4.10). The L* parameter measures darkness and lightness and ranges from black (L*=0) to white (L*=100). The a* parameter measures color content and intensity ranging from green (a*<0) to neutral grey (a*=0) to red (a*>0). The b* parameter also measures color content and intensity ranging from blue (b*<0) to neutral grey (b*=0) to yellow (b*>0).

[4] = biologically acceptable vehicle, neutral pH range; cited from earlier work
[5] = freshly prepared solution of HR

Compound: CCOC(=O)[C@@H](N)CSSC[C@H](N)C(=O)OCC [DEC, Cystine diethyl ester]
- sulfurous odor generation by the stabilizer (in words) [1]: sulfurous odor generating

Compound: CCCCCCc1ccc(O)cc1O [HR, 4-hexylresorcinol]
- decomposition of HR upon HPLC analysis [2, 5]: no decomposition
- color of freshly prepared solution [3, 5]: colorless

Compound: CC(=O)N[C@@H](CS)C(=O)O [NACys, N-acetyl-L-cysteine]
- sulfurous odor generation by the stabilizer (in words) [1]: generates sulforous odor; also recorded: sulfurous odor generating; also recorded: upleasant sulfurous odor
- stabilizing resorcinol derivatives (in words) [2]: effective

Compound: CC(=O)N[C@@H](CSSC[C@H](NC(C)=O)C(=O)O)C(=O)O [NDAC, N,N′-diacetyl-L-Cystine]
- sulfurous odor generation by the stabilizer (in words) [1]: no sulfurous odor generation
- prevention of color formation / discoloration (in words) ([3]; after 2 weeks at R.T., in the presence or absence of B3): effective

Compound: N[C@@H](CSSC[C@H](N)C(=O)O)C(=O)O [cystine]
- solubility [4]: extremely low
